Experiments:
Assay type in all cases: binding, E. coli
SLT-1 (VT-1) = SLT-1 (VT-1) (Bacteriophage H30, UniProt P69178)
SLT-1 (Verotoxin I) = SLT-1 (Verotoxin I) (Bacteriophage H30, UniProt P69178); assay: biochemical; conditions: for IC50: read-out: IC50
SLT-2 (VT-2) = SLT-2 (VT-2) (Escherichia phage 933W, UniProt P09386)
[1] = solid phase assays, protocol A or B

Chain of SLT-1 (VT-1) (P69178 whole entry, looked up): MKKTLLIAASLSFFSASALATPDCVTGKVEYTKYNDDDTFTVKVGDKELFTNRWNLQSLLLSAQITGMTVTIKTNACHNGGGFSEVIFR
Chain of SLT-1 (Verotoxin I) (P69178 whole entry, looked up): as above
Chain of SLT-2 (VT-2) (P09386 whole entry, looked up): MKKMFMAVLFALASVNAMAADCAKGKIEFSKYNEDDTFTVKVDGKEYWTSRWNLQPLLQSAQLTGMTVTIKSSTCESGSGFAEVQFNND

SMILES	IC50 (SLT-1 (VT-1)) [µM]	activity relative to the Pk trisaccharide alone (SLT-1 (Verotoxin I); ELISA, VT-I)	IC50 (SLT-1 (Verotoxin I)) [µM]	activity relative to the bridged trisaccharide dimer (SLT-1 (Verotoxin I); similar ELISA, FIG. 5)	relative inhibition of SLT-1 binding to P^k ligand (in words) (SLT-1 (Verotoxin I); [1])	IC50 (SLT-2 (VT-2)) [µM]	fold less active when compared to 22 (SLT-1 (Verotoxin I); solid phase assays, protocol A or B, SLT-1)
CO[C@@H]1O[C@H](CO)[C@@H](O[C@@H]2O[C@H](CO)[C@H](O[C@H]3O[C@H](CO)[C@H](O)[C@H](O)[C@H]3O)[C@H](O)[C@H]2OCCOC(=O)NCC(CNC(=O)OCCO[C@H]2[C@H](O[C@H]3[C@H](O)[C@@H](O)[C@H](OC)O[C@@H]3CO)O[C@H](CO)[C@H](O[C@H]3O[C@H](CO)[C@H](O)[C@H](O)[C@H]3O)[C@@H]2O)OC(=O)NCCCCCCCCNc2c(NCCNC(=O)CSCCCOC[C@H]3O[C@@H](OCCCSCC(=O)NCCNc4c(NCCCCCCCCNC(=O)OC(CNC(=O)OCCO[C@H]5[C@H](O[C@H]6[C@H](O)[C@@H](O)[C@H](OC)O[C@@H]6CO)O[C@H](CO)[C@H](O[C@H]6O[C@H](CO)[C@H](O)[C@H](O)[C@H]6O)[C@@H]5O)CNC(=O)OCCO[C@H]5[C@H](O[C@H]6[C@H](O)[C@@H](O)[C@H](OC)O[C@@H]6CO)O[C@H](CO)[C@H](O[C@H]6O[C@H](CO)[C@H](O)[C@H](O)[C@H]6O)[C@@H]5O)c(=O)c4=O)[C@H](OCCCSCC(=O)NCCNc4c(NCCCCCCCCNC(=O)OC(CNC(=O)OCCO[C@H]5[C@H](O[C@H]6[C@H](O)[C@@H](O)[C@H](OC)O[C@@H]6CO)O[C@H](CO)[C@H](O[C@H]6O[C@H](CO)[C@H](O)[C@H](O)[C@H]6O)[C@@H]5O)CNC(=O)OCCO[C@H]5[C@H](O[C@H]6[C@H](O)[C@@H](O)[C@H](OC)O[C@@H]6CO)O[C@H](CO)[C@H](O[C@H]6O[C@H](CO)[C@H](O)[C@H](O)[C@H]6O)[C@@H]5O)c(=O)c4=O)[C@@H](OCCCSCC(=O)NCCNc4c(NCCCCCCCCNC(=O)OC(CNC(=O)OCCO[C@H]5[C@H](O[C@H]6[C@H](O)[C@@H](O)[C@H](OC)O[C@@H]6CO)O[C@H](CO)[C@H](O[C@H]6O[C@H](CO)[C@H](O)[C@H](O)[C@H]6O)[C@@H]5O)CNC(=O)OCCO[C@H]5[C@H](O[C@H]6[C@H](O)[C@@H](O)[C@H](OC)O[C@@H]6CO)O[C@H](CO)[C@H](O[C@H]6O[C@H](CO)[C@H](O)[C@H](O)[C@H]6O)[C@@H]5O)c(=O)c4=O)[C@@H]3OCCCSCC(=O)NCCNc3c(NCCCCCCCCNC(=O)OC(CNC(=O)OCCO[C@H]4[C@H](O[C@H]5[C@H](O)[C@@H](O)[C@H](OC)O[C@@H]5CO)O[C@H](CO)[C@H](O[C@H]5O[C@H](CO)[C@H](O)[C@H](O)[C@H]5O)[C@@H]4O)CNC(=O)OCCO[C@H]4[C@H](O[C@H]5[C@H](O)[C@@H](O)[C@H](OC)O[C@@H]5CO)O[C@H](CO)[C@H](O[C@H]5O[C@H](CO)[C@H](O)[C@H](O)[C@H]5O)[C@@H]4O)c(=O)c3=O)c(=O)c2=O)[C@H](O)[C@H]1O [Compound 22]	0.0004	about a million times more active than the trisaccharide alone	0.00023	about 10,000 times	by far the most active inhibitor of SLT-1 binding to P^k ligand	0.006	–
CO[C@@H]1O[C@H](CO)[C@@H](O[C@@H]2O[C@H](CO)[C@H](O[C@H]3O[C@H](CO)[C@H](O)[C@H](O)[C@H]3O)[C@H](O)[C@H]2OCCOC(=O)NCC(CNC(=O)OCCO[C@H]2[C@H](O[C@H]3[C@H](O)[C@@H](O)[C@H](OC)O[C@@H]3CO)O[C@H](CO)[C@H](O[C@H]3O[C@H](CO)[C@H](O)[C@H](O)[C@H]3O)[C@@H]2O)OC(=O)NCCCCCCCCNc2c(NCCNC(=O)CSCCCOC[C@H]3O[C@@H](OC)[C@H](OCCCSCC(=O)NCCNc4c(NCCCCCCCCNC(=O)OC(CNC(=O)OCCO[C@H]5[C@H](O[C@H]6[C@H](O)[C@@H](O)[C@H](OC)O[C@@H]6CO)O[C@H](CO)[C@H](O[C@H]6O[C@H](CO)[C@H](O)[C@H](O)[C@H]6O)[C@@H]5O)CNC(=O)OCCO[C@H]5[C@H](O[C@H]6[C@H](O)[C@@H](O)[C@H](OC)O[C@@H]6CO)O[C@H](CO)[C@H](O[C@H]6O[C@H](CO)[C@H](O)[C@H](O)[C@H]6O)[C@@H]5O)c(=O)c4=O)[C@@H](OCCCSCC(=O)NCCNc4c(NCCCCCCCCNC(=O)OC(CNC(=O)OCCO[C@H]5[C@H](O[C@H]6[C@H](O)[C@@H](O)[C@H](OC)O[C@@H]6CO)O[C@H](CO)[C@H](O[C@H]6O[C@H](CO)[C@H](O)[C@H](O)[C@H]6O)[C@@H]5O)CNC(=O)OCCO[C@H]5[C@H](O[C@H]6[C@H](O)[C@@H](O)[C@H](OC)O[C@@H]6CO)O[C@H](CO)[C@H](O[C@H]6O[C@H](CO)[C@H](O)[C@H](O)[C@H]6O)[C@@H]5O)c(=O)c4=O)[C@@H]3OCCCSCC(=O)NCCNc3c(NCCCCCCCCNC(=O)OC(CNC(=O)OCCO[C@H]4[C@H](O[C@H]5[C@H](O)[C@@H](O)[C@H](OC)O[C@@H]5CO)O[C@H](CO)[C@H](O[C@H]5O[C@H](CO)[C@H](O)[C@H](O)[C@H]5O)[C@@H]4O)CNC(=O)OCCO[C@H]4[C@H](O[C@H]5[C@H](O)[C@@H](O)[C@H](OC)O[C@@H]5CO)O[C@H](CO)[C@H](O[C@H]5O[C@H](CO)[C@H](O)[C@H](O)[C@H]5O)[C@@H]4O)c(=O)c3=O)c(=O)c2=O)[C@H](O)[C@H]1O [Compound 23]	0.0033	–	0.0016	–	–	0.009	–
CO[C@@H]1O[C@H](CO)[C@@H](O[C@@H]2O[C@H](CO)[C@H](O[C@H]3O[C@H](CO)[C@H](O)[C@H](O)[C@H]3O)[C@H](O)[C@H]2OCCOC(=O)NCCCCCCCCNc2c(NCCNC(=O)CSCCCOC[C@H]3O[C@@H](OCCCSCC(=O)NCCNc4c(NCCCCCCCCNC(=O)OCCO[C@H]5[C@H](O[C@H]6[C@H](O)[C@@H](O)[C@H](OC)O[C@@H]6CO)O[C@H](CO)[C@H](O[C@H]6O[C@H](CO)[C@H](O)[C@H](O)[C@H]6O)[C@@H]5O)c(=O)c4=O)[C@H](OCCCSCC(=O)NCCNc4c(NCCCCCCCCNC(=O)OCCO[C@H]5[C@H](O[C@H]6[C@H](O)[C@@H](O)[C@H](OC)O[C@@H]6CO)O[C@H](CO)[C@H](O[C@H]6O[C@H](CO)[C@H](O)[C@H](O)[C@H]6O)[C@@H]5O)c(=O)c4=O)[C@@H](OCCCSCC(=O)NCCNc4c(NCCCCCCCCNC(=O)OCCO[C@H]5[C@H](O[C@H]6[C@H](O)[C@@H](O)[C@H](OC)O[C@@H]6CO)O[C@H](CO)[C@H](O[C@H]6O[C@H](CO)[C@H](O)[C@H](O)[C@H]6O)[C@@H]5O)c(=O)c4=O)[C@@H]3OCCCSCC(=O)NCCNc3c(NCCCCCCCCNC(=O)OCCO[C@H]4[C@H](O[C@H]5[C@H](O)[C@@H](O)[C@H](OC)O[C@@H]5CO)O[C@H](CO)[C@H](O[C@H]5O[C@H](CO)[C@H](O)[C@H](O)[C@H]5O)[C@@H]4O)c(=O)c3=O)c(=O)c2=O)[C@H](O)[C@H]1O [Compound 25]	1.23	–	0.024	–	–	–	500-1000 fold
CO[C@@H]1O[C@H](CO)[C@@H](O[C@@H]2O[C@H](CO)[C@H](O[C@H]3O[C@H](CO)[C@H](O)[C@H](O)[C@H]3O)[C@H](O)[C@H]2OCCOC(=O)NCCCCCCCCNc2c(NCCNC(=O)CSCCCOC[C@H]3O[C@@H](OC)[C@H](OCCCSCC(=O)NCCNc4c(NCCCCCCCCNC(=O)OCCO[C@H]5[C@H](O[C@H]6[C@H](O)[C@@H](O)[C@H](OC)O[C@@H]6CO)O[C@H](CO)[C@H](O[C@H]6O[C@H](CO)[C@H](O)[C@H](O)[C@H]6O)[C@@H]5O)c(=O)c4=O)[C@@H](OCCCSCC(=O)NCCNc4c(NCCCCCCCCNC(=O)OCCO[C@H]5[C@H](O[C@H]6[C@H](O)[C@@H](O)[C@H](OC)O[C@@H]6CO)O[C@H](CO)[C@H](O[C@H]6O[C@H](CO)[C@H](O)[C@H](O)[C@H]6O)[C@@H]5O)c(=O)c4=O)[C@@H]3OCCCSCC(=O)NCCNc3c(NCCCCCCCCNC(=O)OCCO[C@H]4[C@H](O[C@H]5[C@H](O)[C@@H](O)[C@H](OC)O[C@@H]5CO)O[C@H](CO)[C@H](O[C@H]5O[C@H](CO)[C@H](O)[C@H](O)[C@H]5O)[C@@H]4O)c(=O)c3=O)c(=O)c2=O)[C@H](O)[C@H]1O [Compound 26]	3.4	–	0.35	–	the activity drops by several orders of magnitude	–	–
CO[C@@H]1O[C@H](CO)[C@@H](O[C@@H]2O[C@H](CO)[C@H](O[C@H]3O[C@H](CO)[C@H](O)[C@H](O)[C@H]3O)[C@H](O)[C@H]2OCCOC(=O)NCCCCCCCCNc2c(NCCNC(=O)CSCCCO[C@@H]3[C@@H](OCCCSCC(=O)NCCNc4c(NCCCCCCCCNC(=O)OCCO[C@H]5[C@H](O[C@H]6[C@H](O)[C@@H](O)[C@H](OC)O[C@@H]6CO)O[C@H](CO)[C@H](O[C@H]6O[C@H](CO)[C@H](O)[C@H](O)[C@H]6O)[C@@H]5O)c(=O)c4=O)[C@H](OC)O[C@H](CO)[C@H]3OCCCSCC(=O)NCCNc3c(NCCCCCCCCNC(=O)OCCO[C@H]4[C@H](O[C@H]5[C@H](O)[C@@H](O)[C@H](OC)O[C@@H]5CO)O[C@H](CO)[C@H](O[C@H]5O[C@H](CO)[C@H](O)[C@H](O)[C@H]5O)[C@@H]4O)c(=O)c3=O)c(=O)c2=O)[C@H](O)[C@H]1O [Compound 27]	13.6	–	3.5	–	the activity drops by several orders of magnitude	–	–
